Values after ≈ are worked out from the molar mass of the structure shown. Where two headings read alike, the source gives them in different places.
How the values were obtained:
[1] = tested on: C. albicans; test: Antifungal Activity Assay (broth microtiter MIC), C. albicans; assay type: cell-based, Candida albicans; details: Candida albicans, ATCC90028, 48 h
How it was run: (§1)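 Susceptibility was determined by CLSI M27-A3 broth microdilution in RPMI 1640 buffered with MOPS. Growth inhibition was scored visually after 48 h.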

[2] = tested on: C. krusei; test: Antifungal Activity Assay (broth microtiter MIC), C. krusei; assay type: cell-based, Candida krusei; details: Pichia kudriavzevii, ATCC6258, 48 h
How it was run: as §1

[3] = tested on: C. parapsilosis; test: Antifungal Activity Assay (broth microtiter MIC), C. parapsilosis; assay type: cell-based, Candida parapsilosis; details: Lodderomyces parapsilosis, ATCC22019, 48 h
How it was run: as §1

[4] = tested on: Botrtyis cinerea (Bc); test: Growth inhibition assay of fungal pathogens, Bc; assay type: cell-based; details: 48 h
How it was run: (§2)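 Read-out: OD600 plus visual rating at 24 and 48 h, blank (media + 2% DMSO) subtracted. Percent inhibition was derived at 48 h versus the 2% DMSO control. Spores were grown in 17% V8 broth with compound at 50/10/2 or 2/0.4/0.08 ppm final.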

[5] = tested on: Collectotrichum graminicola (Cg); test: Growth inhibition assay of fungal pathogens, Cg; assay type: cell-based; details: 48 h
How it was run: as §2

[6] = tested on: Diplodia maydis (Dm); test: Growth inhibition assay of fungal pathogens, Dm; assay type: cell-based; details: Stenocarpella maydis, 48 h
How it was run: as §2

[7] = tested on: Fusarium moniliforme (Fm); test: Growth inhibition assay of fungal pathogens, Fm; assay type: cell-based; details: for IC90: Fusarium verticillioides, 48 h, read-out: Concentration at 90% Inhibition Fm
How it was run: as §2

[8] = tested on: Fusarium virguliforme (Fv); test: Growth inhibition assay of fungal pathogens, Fv; assay type: cell-based; details: 48 h
How it was run: as §2

[9] = tested on: Phytophthora capsici (Pc); test: Growth inhibition assay of fungal pathogens, Pc; assay type: cell-based; details: 48 h
How it was run: as §2

[10] = tested on: Septoria tritici (St); test: Growth inhibition assay of fungal pathogens, St; assay type: cell-based; details: Zymoseptoria tritici, 48 h
How it was run: as §2

[11] = Table 3a, ATCC 90028, 3 replicates, MIC recorded at 48 h, read-out: MIC, C. albicans ATCC 90028
[12] = Table 3b (additional results), ATCC 90028, 3 replicates, MIC recorded at 48 h, read-out: MIC, C. albicans ATCC 90028
[13] = Table 3a, ATCC 6258, 3 replicates, MIC recorded at 48 h, read-out: MIC, C. krusei ATCC 6258
[14] = Table 3b (additional results), ATCC 6258, 3 replicates, MIC recorded at 48 h, read-out: MIC, C. krusei ATCC 6258
[15] = Table 3a, ATCC 22019, 3 replicates, MIC recorded at 48 h, read-out: MIC, C. parapsilosis ATCC 22019
[16] = Table 3b (additional results), ATCC 22019, 3 replicates, MIC recorded at 48 h, read-out: MIC, C. parapsilosis ATCC 22019
[17] = Botrtyis cinerea, growth inhibition at 48 hours vs 2% DMSO control, read-out: Concentration at 90% Inhibition Bc
[18] = Botrtyis cinerea, growth inhibition vs 2% DMSO control at 48 hours, read-out: Concentration at 90% Inhibition Bc
[19] = Collectotrichum graminicola, growth inhibition at 48 hours vs 2% DMSO control, read-out: Concentration at 90% Inhibition Cg
[20] = Collectotrichum graminicola, growth inhibition vs 2% DMSO control at 48 hours, read-out: Concentration at 90% Inhibition Cg
[21] = Diplodia maydis, growth inhibition at 48 hours vs 2% DMSO control, read-out: Concentration at 90% Inhibition Dm
[22] = Diplodia maydis, growth inhibition vs 2% DMSO control at 48 hours, read-out: Concentration at 90% Inhibition Dm
[23] = Fusarium moniliforme, growth inhibition at 48 hours vs 2% DMSO control
[24] = Fusarium moniliforme, growth inhibition vs 2% DMSO control at 48 hours
[25] = growth inhibition at 48 hours vs 2% DMSO control, read-out: Concentration at 90% Inhibition Fv
[26] = growth inhibition vs 2% DMSO control at 48 hours, read-out: Concentration at 90% Inhibition Fv
[27] = growth inhibition at 48 hours vs 2% DMSO control, read-out: Concentration at 90% Inhibition Pc
[28] = growth inhibition vs 2% DMSO control at 48 hours, read-out: Concentration at 90% Inhibition Pc
[29] = Septoria tritici, growth inhibition at 48 hours vs 2% DMSO control, read-out: Concentration at 90% Inhibition St
[30] = Septoria tritici, growth inhibition vs 2% DMSO control at 48 hours, read-out: Concentration at 90% Inhibition St

## COc1ccc(F)cc1[C@H](Cn1c(=O)n(C(C)(C)C(N)=O)c(=O)c2c(C)c(-n3nccn3)sc21)OC1CCC(=O)CC1 [Compound I-31, (R)-2-(1-(2-(5-fluoro-2-methoxyphenyl)-2-((4-oxocyclo-hexyl)oxy)ethyl)-5-methyl-2,4-dioxo-6-(2H-1,2,3-triazol-2-yl)-1,4-dihydrothieno[2,3-d]pyrimidin-3(2H)-yl)-2-methylpropanamide]
[1]; [11]
  MIC: 0.25 to 1 µg/mL (≈ 0.418 to 1.67 µM)
[1]; [12]
  MIC: 0.25 to 1 µg/mL (≈ 0.418 to 1.67 µM)
[2]; [13]
  MIC: 0.25 to 1 µg/mL (≈ 0.418 to 1.67 µM)
[2]; [14]
  MIC: 0.25 to 1 µg/mL (≈ 0.418 to 1.67 µM)
[3]; [15]
  MIC: 1.1 to 2 µg/mL (≈ 1.84 to 3.34 µM)
[3]; [16]
  MIC: 2.01 to 4 µg/mL (≈ 3.36 to 6.68 µM)
[4]; [17]
  IC90: 0.4 µg/mL (≈ 0.668 µM)
[4]; [18]
  IC90: 0.4 µg/mL (≈ 0.668 µM)
[5]; [19]
  IC90: 10 µg/mL (≈ 16.7 µM)
[5]; [20]
  IC90: > 50 µg/mL
[6]; [21]
  IC90: 2 µg/mL (≈ 3.34 µM)
[6]; [22]
  IC90: 10 µg/mL (≈ 16.7 µM)
[7]; [23]
  IC90: 0.4 µg/mL (≈ 0.668 µM)
[7]; [24]
  IC90: 0.4 µg/mL (≈ 0.668 µM)
[8]; [25]
  IC90: 10 µg/mL (≈ 16.7 µM)
[8]; [26]
  IC90: > 50 µg/mL
[9]; [27]
  IC90: > 50 µg/mL
[9]; [28]
  IC90: > 50 µg/mL
[10]; [29]
  IC90: > 50 µg/mL
[10]; [30]
  IC90: > 50 µg/mL

## COc1ccc(F)cc1[C@H](Cn1c(=O)n(C(C)(C)C(=O)NC(C)C)c(=O)c2c(C)c(-n3nccn3)sc21)OC1CCC(=O)CC1 [Compound I-32, (R)-2-(1-(2-(5-fluoro-2-methoxyphenyl)-2-((4-oxocyclo-hexyl)oxy)ethyl)-5-methyl-2,4-dioxo-6-(2H-1,2,3-triazol-2-yl)-1,4-dihydro-thieno[2,3-d]pyrimidin-3(2H)-yl)-N-isopropyl-2-methylpropanamide]
[1]; read-out: MIC, C. albicans ATCC 90028, Table 3a, 3 replicates, MIC recorded at 48 h
  MIC: 0.06 to 0.24 µg/mL (≈ 0.0936 to 0.375 µM)
[1]; read-out: MIC, C. albicans ATCC 90028, Table 3b (additional results), 3 replicates, MIC recorded at 48 h
  MIC: 0.06 to 0.249 µg/mL (≈ 0.0936 to 0.389 µM)
[2]; read-out: MIC, C. krusei ATCC 6258, Table 3a, 3 replicates, MIC recorded at 48 h
  MIC: 0.06 to 0.24 µg/mL (≈ 0.0936 to 0.375 µM)
[2]; read-out: MIC, C. krusei ATCC 6258, Table 3b (additional results), 3 replicates, MIC recorded at 48 h
  MIC: 0.06 to 0.249 µg/mL (≈ 0.0936 to 0.389 µM)
[3]; read-out: MIC, C. parapsilosis ATCC 22019, Table 3a, 3 replicates, MIC recorded at 48 h
  MIC: 0.25 to 1 µg/mL (≈ 0.39 to 1.56 µM)
[3]; read-out: MIC, C. parapsilosis ATCC 22019, Table 3b (additional results), 3 replicates, MIC recorded at 48 h
  MIC: 0.25 to 1 µg/mL (≈ 0.39 to 1.56 µM)
[4]; read-out: Concentration at 90% Inhibition Bc, Botrtyis cinerea, growth inhibition at 48 hours vs 2% DMSO control
  IC90: 0.08 µg/mL (≈ 0.125 µM)
[4]; read-out: Concentration at 90% Inhibition Bc, Botrtyis cinerea, growth inhibition vs 2% DMSO control at 48 hours
  IC90: 0.08 µg/mL (≈ 0.125 µM)
[5]; read-out: Concentration at 90% Inhibition Cg, Collectotrichum graminicola, growth inhibition at 48 hours vs 2% DMSO control
  IC90: 2 µg/mL (≈ 3.12 µM)
[5]; read-out: Concentration at 90% Inhibition Cg, Collectotrichum graminicola, growth inhibition vs 2% DMSO control at 48 hours
  IC90: 2 µg/mL (≈ 3.12 µM)
[6]; read-out: Concentration at 90% Inhibition Dm, Diplodia maydis, growth inhibition at 48 hours vs 2% DMSO control
  IC90: 0.08 µg/mL (≈ 0.125 µM)
[6]; read-out: Concentration at 90% Inhibition Dm, Diplodia maydis, growth inhibition vs 2% DMSO control at 48 hours
  IC90: 0.08 µg/mL (≈ 0.125 µM)
[7]; [23]
  Concentration at 90% Inhibition Fm: AA (compound concentration of 0.08 ppm at 90% inhibition of fungal pathogens)
[7]
  IC90: 0.08 µg/mL (≈ 0.125 µM)
[8]; read-out: Concentration at 90% Inhibition Fv, Fusarium virguliforme, growth inhibition at 48 hours vs 2% DMSO control
  IC90: 0.4 µg/mL (≈ 0.624 µM)
[8]; read-out: Concentration at 90% Inhibition Fv, Fusarium virguliforme, growth inhibition vs 2% DMSO control at 48 hours
  IC90: 0.4 µg/mL (≈ 0.624 µM)
[9]; read-out: Concentration at 90% Inhibition Pc, Phytophthora capsici, growth inhibition at 48 hours vs 2% DMSO control
  IC90: > 50 µg/mL
[9]; read-out: Concentration at 90% Inhibition Pc, Phytophthora capsici, growth inhibition vs 2% DMSO control at 48 hours
  IC90: > 50 µg/mL
[10]; read-out: Concentration at 90% Inhibition St, Septoria tritici, growth inhibition at 48 hours vs 2% DMSO control
  IC90: > 50 µg/mL
[10]; read-out: Concentration at 90% Inhibition St, Septoria tritici, growth inhibition vs 2% DMSO control at 48 hours
  IC90: > 50 µg/mL

## COc1ccc(F)cc1[C@H](Cn1c(=O)n(C(C)(C)C(=O)N2CCCC2)c(=O)c2c(C)c(-n3nccn3)sc21)OC1CCC(=O)CC1 [Compound I-33, (R)-1-(2-(5-fluoro-2-methoxyphenyl)-2-((4-oxocyclo-hexyl)oxy)ethyl)-5-methyl-3-(2-methyl-1-oxo-1-(pyrrolidin-1-yl)propan-2-yl)-6-(2H-1,2,3-triazol-2-yl)thieno[2,3-d]pyrimidine-2,4(1H,3H)-dione]
[1]; [11]
  MIC: 0.25 to 1 µg/mL (≈ 0.383 to 1.53 µM)
[1]; [12]
  MIC: 0.25 to 1 µg/mL (≈ 0.383 to 1.53 µM)
[2]; [13]
  MIC: 0.25 to 1 µg/mL (≈ 0.383 to 1.53 µM)
[2]; [14]
  MIC: 0.25 to 1 µg/mL (≈ 0.383 to 1.53 µM)
[3]; [15]
  MIC: 0.25 to 1 µg/mL (≈ 0.383 to 1.53 µM)
[3]; [16]
  MIC: 1.01 to 2 µg/mL (≈ 1.55 to 3.06 µM)
[4]; [17]
  IC90: 0.4 µg/mL (≈ 0.613 µM)
[4]; [18]
  IC90: 0.4 µg/mL (≈ 0.613 µM)
[5]; [19]
  IC90: 0.4 µg/mL (≈ 0.613 µM)
[5]; [20]
  IC90: 0.4 µg/mL (≈ 0.613 µM)
[6]; [21]
  IC90: 0.4 µg/mL (≈ 0.613 µM)
[6]; [22]
  IC90: 0.4 µg/mL (≈ 0.613 µM)
[7]; [23]
  IC90: 0.08 µg/mL (≈ 0.123 µM)
[7]; [24]
  IC90: 0.08 µg/mL (≈ 0.123 µM)
[8]; [25]
  IC90: 0.4 µg/mL (≈ 0.613 µM)
[8]; [26]
  IC90: 0.4 µg/mL (≈ 0.613 µM)
[9]; [27]
  IC90: > 50 µg/mL
[9]; [28]
  IC90: > 50 µg/mL
[10]; [29]
  IC90: > 50 µg/mL
[10]; [30]
  IC90: > 50 µg/mL
